Here are results for 16 compounds from ChEMBL document CHEMBL3739329, “Synthesis and biological evaluation of nitric oxide-releasing hybrids from gemcitabine and phenylsulfonyl furoxans as anti-tumor agents” (Medchemcomm, 2015).

Series [1] can be described thus: Cytotoxicity against human SGC7901 cells assessed as inhibition of cell proliferation after 48 hrs by MTT assay. The class given is functional, cell-based. The settings on record: SGC-7901, 48 h. On the technique in general: Tetrazolium assays rely on reduction of a dye to a coloured formazan, in cell work by metabolically active cells.
Series [2] deals with HepG2. The series is described as follows: Cytotoxicity against human HepG2 cells assessed as inhibition of cell proliferation after 48 hrs by MTT assay. Format: functional, cell-based. The settings on record: HepG2, 48 h.
The nature of series [3]: Cytotoxicity against human HCT116 cells assessed as inhibition of cell proliferation after 48 hrs by MTT assay. Format: functional, cell-based. The settings on record: HCT-116, 48 h.
The nature of series [4]: Cytotoxicity against human SW620 cells assessed as inhibition of cell proliferation after 48 hrs by MTT assay. The class given is functional, cell-based. The settings on record: SW-620, 48 h.
A further series relates to A549. The series is described as follows: Cytotoxicity against human A549 cells assessed as inhibition of cell proliferation after 48 hrs by MTT assay. The class given is functional, cell-based. The note with it: A549, 48 h.
In series [5] the test system is HepG2. The experiment in a line: Induction of NO production in human HepG2 cells at 100 uM incubated for 24 hrs by Griess assay. The class given is functional, cell-based. (In general: The Griess reaction detects nitrite, a stable product of nitric oxide.)
Series [6] has as its system HCT-116. The experiment in a line: Induction of NO production in human HCT116 cells at 100 uM incubated for 24 hrs by Griess assay. The class given is functional, cell-based.
The test system of series [7] is SW-620. The experiment in a line: Induction of nitrite/nitrate production in human SW620 cells at 100 uM incubated for 24 hrs by Griess assay. Format: functional, cell-based.
Series [8] is described as follows: Cytotoxicity against human LO2 cells assessed as inhibition of cell proliferation after 48 hrs by MTT assay. The settings on record: l02, 48 h. The class given is cell-based.
For series [9], the system named is HepG2. The series is described as follows: Cytotoxicity against human HepG2 cells assessed as inhibition of cell proliferation at 0.5 to 50 uM after 48 hrs in presence of dipyridamole by MTT assay. The class given is functional, cell-based.
Series [10] deals with HepG2. The series is described as follows: Induction of nitric oxide release in human HepG2 cells incubated for 24 hrs by DAF-FM DA staining-based flow cytometric analysis. The class given is functional, cell-based. A general note: A flow cytometer gives signals particle by particle.
The subject of series [11] is HepG2. The series is described as follows: Cytotoxicity against human HepG2 cells assessed as inhibition of cell proliferation at 2 to 4 uM after 48 hrs in presence of haemoglobin. Format: functional, cell-based.
Series [12] deals with HepG2. The series is described as follows: Induction of apoptosis in human HepG2 cells at 2 uM incubated for 48 hrs by FITC-Annexin V/PI staining-based flow cytometric analysis. The class given is functional.
For series [13], the system named is HepG2. The experiment in a line: Induction of apoptosis in human HepG2 cells incubated for 48 hrs by FITC-Annexin V/PI staining-based flow cytometric analysis. The class given is functional, cell-based.
Series [14] relates to HepG2. The series is described as follows: Induction of apoptosis in human HepG2 cells assessed as reduction in Bcl-2 protein level incubated for 48 hrs by Western blot analysis. The class given is functional, cell-based.
Series [15] relates to HepG2. The series is described as follows: Induction of apoptosis in human HepG2 cells assessed as increase in Bax protein level incubated for 48 hrs by Western blot analysis. The class given is functional, cell-based.
The subject of series [16] is HepG2. The experiment in a line: Induction of apoptosis in human HepG2 cells assessed as increase in activated caspase-3 protein level at 0.5 to 2 uM incubated for 48 hrs by Western blot analysis. The class given is functional, cell-based.
The test system of series [17] is HepG2. The experiment in a line: Induction of apoptosis in human HepG2 cells assessed as reduction in PARP-1 protein level at 2 uM incubated for 48 hrs by Western blot analysis. The class given is functional, cell-based.
In series [18] the test system is HCT-116. The series is described as follows: Induction of nitric oxide release in human HCT116 cells incubated for 24 hrs by DAF-FM DA staining-based flow cytometric analysis. Format: functional, cell-based.
For series [19], the system named is SW-620. The experiment in a line: Induction of nitric oxide release in human SW620 cells incubated for 24 hrs by DAF-FM DA staining-based flow cytometric analysis. The class given is functional, cell-based.
Series [20] concerns HepG2. The experiment in a line: Induction of apoptosis in human HepG2 cells assessed as reduction in PARP-1 protein level at 0.5 to 2 uM incubated for 48 hrs by Western blot analysis. Format: functional, cell-based.
Series [21] relates to HepG2. The series is described as follows: Induction of nitric oxide release in human HepG2 cells at 6 uM incubated for 24 hrs by DAF-FM DA staining-based flow cytometric analysis. The class given is functional, cell-based.
In series [22] the test system is SW-620. The series is described as follows: Induction of nitric oxide release in human SW620 cells at 6 uM incubated for 24 hrs by DAF-FM DA staining-based flow cytometric analysis. Format: functional, cell-based.
Series [23] concerns HCT-116. The series is described as follows: Induction of nitric oxide release in human HCT116 cells at 6 uM incubated for 24 hrs by DAF-FM DA staining-based flow cytometric analysis. The class given is functional, cell-based.

The source made the active and inactive calls. No cut-off for these calls is given here.

By IC50 is commonly meant the concentration that inhibits the measured activity by half. Turning to `O=C(CCC(=O)Nc1ccn([C@@H]2O[C@H](CO)[C@@H](O)C2(F)F)c(=O)n1)NCCCOc1no[n+]([O-])c1S(=O)(=O)c1ccccc1`, the IC50 in series [1] came out at 6.71 µM; in the series on HepG2 [2] it was 6.18 µM; in series [3], 4.1 µM; in series [4], 4.97 µM; in the series with A549, 8.9 µM. The result in the series on HepG2 [5], with HCT-116 [6] and with SW-620 [7] was Active.

As to `O=C(CCC(=O)OCC#CCOc1no[n+]([O-])c1S(=O)(=O)c1ccccc1)Nc1ccn([C@@H]2O[C@H](CO)[C@@H](O)C2(F)F)c(=O)n1`, the half-maximal inhibitory concentration (IC50) in [1] was determined as 1.36 µM; with HepG2 [2] it was 1.02 µM; in series [3], 1.19 µM; in [4], 1.3 µM; with A549, 3.27 µM. Further, the Activity result is “Non-toxic” in series [8]; “Dose-dependent effect” in the series on HepG2 [10]; 78.3% with HepG2 [12]; “Dose-dependent effect” with HepG2 [14]; “Dose-dependent effect” in the series with HepG2 [15]; “Dose-dependent effect” in the series on HCT-116 [18]. For the same compound, the Activity entry in the series on SW-620 [19] is “Dose-dependent effect”. Moreover, the result in the series on HepG2 [9], in the series with HepG2 [5], in the series with HCT-116 [6], in the series with SW-620 [7], in the series with HepG2 [13] and in the series on HepG2 [16] was Active. Also, the result in the series on HepG2 [17] and in the series with HepG2 [20] was Active. Besides, the outcome in the series on HepG2 [11] was inactive.

With `O=C(CCC(=O)Oc1ccc(CCOc2no[n+]([O-])c2S(=O)(=O)c2ccccc2)cc1)Nc1ccn([C@@H]2O[C@H](CO)[C@@H](O)C2(F)F)c(=O)n1`, the IC50 was over 12.5 µM in series [1]; 9.21 µM with HepG2 [2]; 8.78 µM in series [3]; over 12.5 µM in [4]; over 12.5 µM with A549.

For `Nc1ccn([C@@H]2O[C@H](CO)[C@@H](O)C2(F)F)c(=O)n1` [GEMCITABINE], the IC50 in series [1] worked out at 3.58 µM; in the series on HepG2 [2], 2.97 µM; in series [3] it was 7.33 µM; in series [4] it was 5.62 µM; in the series on A549, 2.69 µM. For the same compound, the outcome in the series with HepG2 [9], with HepG2 [5], in the series on HCT-116 [6] and in the series on SW-620 [7] was inactive. Further, the outcome in the series with HepG2 [12] and in the series with HepG2 [17] was Active.

Consider `O=C(O)CCC(=O)OCC#CCOc1no[n+]([O-])c1S(=O)(=O)c1ccccc1`, for which the 50% inhibitory concentration (IC50) in [1] is 11.5 µM; in the series with HepG2 [2], 8.73 µM; in series [3], 9.86 µM; in [4], 9.09 µM; in the series with A549, over 12.5 µM.

For `CN(CCOc1no[n+]([O-])c1S(=O)(=O)c1ccccc1)C(=O)CCC(=O)Nc1ccn([C@@H]2O[C@H](CO)[C@@H](O)C2(F)F)c(=O)n1`, the IC50 worked out at 5.85 µM in series [1]; 8.39 µM in the series with HepG2 [2]; 10.8 µM in [3]; 5.21 µM in [4]; 10.1 µM with A549.

With `O=C(CCC(=O)Nc1ccn([C@@H]2O[C@H](CO)[C@@H](O)C2(F)F)c(=O)n1)NCCCCCOc1no[n+]([O-])c1S(=O)(=O)c1ccccc1`, the IC50 in series [1] was 11.8 µM; in the series with HepG2 [2], 10.7 µM; in [3], over 12.5 µM; in [4] it was over 12.5 µM; in the series on A549, over 12.5 µM.

For the compound `O=C(CCC(=O)Nc1ccn([C@@H]2O[C@H](CO)[C@@H](O)C2(F)F)c(=O)n1)NCCOc1no[n+]([O-])c1S(=O)(=O)c1ccccc1`, the IC50 was 9.92 µM in [1]; 10.5 µM with HepG2 [2]; over 12.5 µM in series [3]; 9.16 µM in series [4]; over 12.5 µM in the series with A549.

In the case of `CCOC(=O)N1CCN(/[N+]([O-])=N/Oc2ccc([N+](=O)[O-])cc2[N+](=O)[O-])CC1`, the IC50 was determined as 7.42 µM with HepG2 [2], 3.75 µM in series [3] and 5.16 µM in series [4]. Besides, the result in the series with HepG2 [21], with SW-620 [22] and in the series on HCT-116 [23] was Active.

Consider `O=C(CCC(=O)OCCCCOc1no[n+]([O-])c1S(=O)(=O)c1ccccc1)Nc1ccn([C@@H]2O[C@H](CO)[C@@H](O)C2(F)F)c(=O)n1`, for which the IC50 in series [1] was found to be 6.13 µM; in the series on HepG2 [2] it was 2.44 µM; in [3], 3.57 µM; in series [4], 2.49 µM; in the series with A549, 5.18 µM. Further, the result with HepG2 [5], with HCT-116 [6] and in the series on SW-620 [7] was Active.

Take `O=C(CCC(=O)OCCCOc1no[n+]([O-])c1S(=O)(=O)c1ccccc1)Nc1ccn([C@@H]2O[C@H](CO)[C@@H](O)C2(F)F)c(=O)n1`: the IC50 stood at 9.26 µM in [1]; 5.32 µM with HepG2 [2]; 6.89 µM in [3]; 5 µM in series [4]; 9.92 µM in the series with A549. Moreover, the result in the series on HepG2 [5], in the series with HCT-116 [6] and in the series on SW-620 [7] was Active.

As to `O=C(CCC(=O)OCCOCCOc1no[n+]([O-])c1S(=O)(=O)c1ccccc1)Nc1ccn([C@@H]2O[C@H](CO)[C@@H](O)C2(F)F)c(=O)n1`, the IC50 in series [1] is 10.7 µM; with HepG2 [2], 7.05 µM; in series [3], 7.86 µM; in series [4], over 12.5 µM; in the series with A549, 11.5 µM.

Consider `O=C(CCC(=O)OCCOc1no[n+]([O-])c1S(=O)(=O)c1ccccc1)Nc1ccn([C@@H]2O[C@H](CO)[C@@H](O)C2(F)F)c(=O)n1`, for which the IC50 is over 12.5 µM in [1]; over 12.5 µM with HepG2 [2]; 10.3 µM in series [3]; over 12.5 µM in series [4]; over 12.5 µM in the series on A549.

In the case of `O=C(CCC(=O)OCCCCCOc1no[n+]([O-])c1S(=O)(=O)c1ccccc1)Nc1ccn([C@@H]2O[C@H](CO)[C@@H](O)C2(F)F)c(=O)n1`, the IC50 is 10.5 µM in [1]; over 12.5 µM with HepG2 [2]; 11.3 µM in series [3]; 9.67 µM in [4]; over 12.5 µM in the series with A549.

As to `CC(CCOC(=O)CCC(=O)Nc1ccn([C@@H]2O[C@H](CO)[C@@H](O)C2(F)F)c(=O)n1)Oc1no[n+]([O-])c1S(=O)(=O)c1ccccc1` (stereo partly drawn), the IC50 was 7.44 µM in series [1]; 3.25 µM in the series on HepG2 [2]; 4.69 µM in series [3]; 3.98 µM in [4]; 7.82 µM with A549. The result in the series with HepG2 [5], in the series with HCT-116 [6] and in the series on SW-620 [7] was Active.

For `O=C(CCC(=O)Nc1ccn([C@@H]2O[C@H](CO)[C@@H](O)C2(F)F)c(=O)n1)NCCCCOc1no[n+]([O-])c1S(=O)(=O)c1ccccc1`, the IC50 in [1] amounted to 5.1 µM; in the series on HepG2 [2], 3.22 µM; in series [3] it was 3.06 µM; in series [4] it was 4.35 µM; in the series on A549 it was 6.04 µM. Also, the result in the series with HepG2 [5], in the series on HCT-116 [6] and in the series on SW-620 [7] was Active.
